Calls of active or inactive are those of the source.
Legend:
[1] = target: T1, Lysine-specific demethylase 4C (Homo sapiens, UniProt Q9H3R0); test: inhibition of JMJD2C H3K9me3 demethylation – biochemical, DELFIA europium, cherry-picked samples, dose response (AID 488835); format: functional
T1 sequence (Q9H3R0 whole entry): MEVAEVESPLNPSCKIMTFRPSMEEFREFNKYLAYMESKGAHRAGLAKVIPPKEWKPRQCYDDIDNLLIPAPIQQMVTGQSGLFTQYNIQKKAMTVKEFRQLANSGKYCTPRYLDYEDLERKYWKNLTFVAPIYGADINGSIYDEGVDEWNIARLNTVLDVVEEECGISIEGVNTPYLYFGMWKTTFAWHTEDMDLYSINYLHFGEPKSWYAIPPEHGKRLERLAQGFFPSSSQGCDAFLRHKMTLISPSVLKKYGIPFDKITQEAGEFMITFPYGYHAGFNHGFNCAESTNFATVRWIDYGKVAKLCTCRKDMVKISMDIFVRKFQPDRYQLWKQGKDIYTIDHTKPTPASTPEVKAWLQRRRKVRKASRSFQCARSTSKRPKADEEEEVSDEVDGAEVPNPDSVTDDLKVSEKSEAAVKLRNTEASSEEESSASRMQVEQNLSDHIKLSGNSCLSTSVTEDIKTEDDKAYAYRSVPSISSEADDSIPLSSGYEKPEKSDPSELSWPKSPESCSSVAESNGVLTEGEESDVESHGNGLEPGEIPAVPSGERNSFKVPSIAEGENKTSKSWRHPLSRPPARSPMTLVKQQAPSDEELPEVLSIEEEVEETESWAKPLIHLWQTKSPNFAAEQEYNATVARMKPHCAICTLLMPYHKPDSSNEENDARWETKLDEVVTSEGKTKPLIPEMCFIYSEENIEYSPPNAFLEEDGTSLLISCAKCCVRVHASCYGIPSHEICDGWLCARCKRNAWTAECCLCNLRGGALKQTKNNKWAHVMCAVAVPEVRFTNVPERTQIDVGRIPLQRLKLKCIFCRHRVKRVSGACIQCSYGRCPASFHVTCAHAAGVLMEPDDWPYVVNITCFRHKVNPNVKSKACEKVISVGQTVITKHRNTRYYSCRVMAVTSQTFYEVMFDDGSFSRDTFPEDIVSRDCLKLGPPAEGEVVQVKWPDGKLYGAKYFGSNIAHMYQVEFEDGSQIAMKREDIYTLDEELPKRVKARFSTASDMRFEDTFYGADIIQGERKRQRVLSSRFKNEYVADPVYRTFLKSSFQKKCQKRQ

[2] = target: T2, Alkaline phosphatase, tissue-nonspecific isozyme (Homo sapiens, UniProt P05186); test: potency against alkaline phosphatase TNAP – biochemical, luminescent, dose response, SAR follow-up (AID 1056)
T2 sequence (P05186 whole entry): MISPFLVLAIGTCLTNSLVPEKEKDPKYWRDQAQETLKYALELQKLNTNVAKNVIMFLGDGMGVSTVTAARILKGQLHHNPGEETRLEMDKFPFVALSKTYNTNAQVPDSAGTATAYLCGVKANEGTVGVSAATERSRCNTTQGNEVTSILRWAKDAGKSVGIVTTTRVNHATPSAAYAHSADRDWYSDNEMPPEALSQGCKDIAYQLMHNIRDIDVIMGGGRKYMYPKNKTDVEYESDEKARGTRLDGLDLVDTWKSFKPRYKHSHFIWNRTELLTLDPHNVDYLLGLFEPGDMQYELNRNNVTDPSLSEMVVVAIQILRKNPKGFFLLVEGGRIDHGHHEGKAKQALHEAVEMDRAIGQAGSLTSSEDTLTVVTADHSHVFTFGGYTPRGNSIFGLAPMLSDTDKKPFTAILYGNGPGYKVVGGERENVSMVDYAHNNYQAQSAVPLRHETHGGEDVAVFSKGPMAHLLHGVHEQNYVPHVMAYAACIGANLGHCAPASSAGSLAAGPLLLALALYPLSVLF

[3] = target: Alkaline phosphatase, placental type (Homo sapiens, UniProt P05187); test: human placental alkaline phosphatase inhibition – biochemical, luminescence, confirmation (AID 1512); format: functional
Leucine aminopeptidase = target: T3, Leucine aminopeptidase (Plasmodium falciparum 3D7, UniProt Q8IL11); test: P. falciparum M17LAP inhibitors, primary screen, biochemical, fluorogenic H-Leu-NHMec substrate, 1536-well (AID 1619); format: functional
T3 sequence (Q8IL11 whole entry): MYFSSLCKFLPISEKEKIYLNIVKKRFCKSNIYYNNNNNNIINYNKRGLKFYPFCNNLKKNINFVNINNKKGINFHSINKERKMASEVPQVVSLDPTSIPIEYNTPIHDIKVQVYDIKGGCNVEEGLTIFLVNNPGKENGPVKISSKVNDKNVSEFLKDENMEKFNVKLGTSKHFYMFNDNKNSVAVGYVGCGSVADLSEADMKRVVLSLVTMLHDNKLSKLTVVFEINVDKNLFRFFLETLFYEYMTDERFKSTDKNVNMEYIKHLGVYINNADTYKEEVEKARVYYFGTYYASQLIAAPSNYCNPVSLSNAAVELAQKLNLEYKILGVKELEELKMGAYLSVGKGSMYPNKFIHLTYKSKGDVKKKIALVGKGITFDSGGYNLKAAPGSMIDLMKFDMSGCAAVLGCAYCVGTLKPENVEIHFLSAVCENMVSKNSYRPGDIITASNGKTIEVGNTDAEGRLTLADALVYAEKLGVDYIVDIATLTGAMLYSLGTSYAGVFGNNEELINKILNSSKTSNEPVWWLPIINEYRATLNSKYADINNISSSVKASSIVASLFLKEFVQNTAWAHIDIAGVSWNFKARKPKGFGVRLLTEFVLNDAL

Large T antigen = Large T antigen (Simian virus 40, UniProt P03070); format: functional, Betapolyomavirus macacae;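 further: Confirmatory-stage PubChem screen for compounds that inhibit SV40 T antigen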
[4] = target: T4, Bifunctional protein GlmU (Mycobacterium tuberculosis, UniProt P9WMN3); test: Inhibitors of Mycobacterial Glucosamine-1-phosphate acetyl transferase (GlmU). Secondary screen.; set-up: species or system Mycobacterium tuberculosis H37Rv
T4 sequence (P9WMN3 whole entry): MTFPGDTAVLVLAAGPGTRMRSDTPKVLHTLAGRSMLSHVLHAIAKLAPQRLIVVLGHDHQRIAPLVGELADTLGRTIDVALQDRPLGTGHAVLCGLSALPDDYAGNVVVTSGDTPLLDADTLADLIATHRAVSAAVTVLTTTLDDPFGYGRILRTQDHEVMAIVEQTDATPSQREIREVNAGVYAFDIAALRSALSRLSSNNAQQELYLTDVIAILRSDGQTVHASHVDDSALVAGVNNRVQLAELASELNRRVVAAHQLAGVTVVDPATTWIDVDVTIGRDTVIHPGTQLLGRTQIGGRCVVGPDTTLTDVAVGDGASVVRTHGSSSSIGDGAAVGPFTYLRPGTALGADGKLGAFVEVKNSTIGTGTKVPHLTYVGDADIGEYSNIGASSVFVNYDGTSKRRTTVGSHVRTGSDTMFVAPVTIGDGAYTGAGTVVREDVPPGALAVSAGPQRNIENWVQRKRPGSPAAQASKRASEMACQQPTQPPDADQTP

[5] = target: DNA dC->dU-editing enzyme APOBEC-3A (Homo sapiens, UniProt P31941); test: Dose Response confirmation of small molecule APOBEC3A DNA Deaminase Inhibitors via a fluorescence-based single-stranded DNA deaminase assay. [Related pubchem assays (depositor defined):AID493011, AID493024]; format: functional
[6] = target: DNA dC->dU-editing enzyme APOBEC-3G (Homo sapiens, UniProt Q9HC16); format: functional;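 further: Dose-response counterscreen measuring inhibition of APOBEC3G DNA deaminase activity, run while confirming APOBEC3A inhibitors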
[7] = target: T5, Corticotropin-releasing factor receptor 2/Corticotropin-releasing factor-binding protein (Homo sapiens, UniProt P24387+Q13324); test: activators of CRF receptor 2 with binding protein – uHTS hits, confirmation (AID 602473); format: functional; settings: read-out: EC50_Mean
T5 sequence (Q13324 whole entry): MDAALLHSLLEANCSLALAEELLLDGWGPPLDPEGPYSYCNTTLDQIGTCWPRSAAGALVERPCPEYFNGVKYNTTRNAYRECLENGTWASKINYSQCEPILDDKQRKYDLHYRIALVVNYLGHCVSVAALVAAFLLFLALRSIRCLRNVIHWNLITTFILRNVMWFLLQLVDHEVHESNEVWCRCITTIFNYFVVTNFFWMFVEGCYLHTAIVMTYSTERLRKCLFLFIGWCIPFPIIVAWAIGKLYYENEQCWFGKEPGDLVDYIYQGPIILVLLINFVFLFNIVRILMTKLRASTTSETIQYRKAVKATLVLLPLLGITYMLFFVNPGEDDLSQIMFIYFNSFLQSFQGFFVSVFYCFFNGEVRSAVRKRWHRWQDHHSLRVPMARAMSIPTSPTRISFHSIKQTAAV
T5 sequence (P24387 whole entry): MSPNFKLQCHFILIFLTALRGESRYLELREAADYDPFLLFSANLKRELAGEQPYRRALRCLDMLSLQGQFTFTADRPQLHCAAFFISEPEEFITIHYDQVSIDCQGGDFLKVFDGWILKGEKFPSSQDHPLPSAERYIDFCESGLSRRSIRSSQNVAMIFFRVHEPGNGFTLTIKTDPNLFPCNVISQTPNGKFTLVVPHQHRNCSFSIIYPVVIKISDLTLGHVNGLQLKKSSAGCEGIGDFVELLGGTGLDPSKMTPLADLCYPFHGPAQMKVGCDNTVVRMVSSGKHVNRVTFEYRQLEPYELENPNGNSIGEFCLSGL

Mucolipin-3 = target: T6, Mucolipin-3 (Homo sapiens, UniProt Q8TDD5); test: Fluorescence counterscreen assay for […] agonists: dose response cell-based high-throughput screening assay to identify agonists of the transient receptor potential channel ML3 (TRPML3). [Related pubchem assays: 1424, 1448 ]; format: functional
T6 sequence (Q8TDD5 whole entry): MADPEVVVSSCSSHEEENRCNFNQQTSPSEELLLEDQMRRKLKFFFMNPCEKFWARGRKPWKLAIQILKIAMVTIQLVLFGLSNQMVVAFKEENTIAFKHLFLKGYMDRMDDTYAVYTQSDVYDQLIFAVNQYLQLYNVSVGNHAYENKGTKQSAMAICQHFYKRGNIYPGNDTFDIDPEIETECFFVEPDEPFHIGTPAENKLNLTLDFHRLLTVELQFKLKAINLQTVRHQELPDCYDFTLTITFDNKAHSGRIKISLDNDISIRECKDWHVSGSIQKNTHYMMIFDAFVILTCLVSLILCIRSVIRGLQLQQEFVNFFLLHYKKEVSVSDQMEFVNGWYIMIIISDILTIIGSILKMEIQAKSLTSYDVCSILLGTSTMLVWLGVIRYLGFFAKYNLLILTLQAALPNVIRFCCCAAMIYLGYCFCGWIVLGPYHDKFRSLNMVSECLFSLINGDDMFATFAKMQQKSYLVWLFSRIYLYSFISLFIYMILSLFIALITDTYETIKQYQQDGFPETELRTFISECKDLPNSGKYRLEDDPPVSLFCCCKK

Ion channel NompC = Ion channel NompC (Danio rerio, UniProt Q7T1G6); test: Dose response cell-based high-throughput screening assay for agonists of the transient receptor potential channel N1 (TRPN1). [Related pubchem assays (depositor defined):AID1424, AID1448]; format: functional
HEK293 [8] = test: cells; settings: Homo sapiens
HEK293 [9] = test: cells; settings: Homo sapiens; remark: listed apart in the source
[10] = viability of HCT116 lacking mutant beta-catenin – cell-based, human colon tumor, dose response (AID 1045); format: functional;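 further: HCT116 colon tumor cells with beta catenin knocked out; cells exposed to compound for 60 hours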
[11] = viability of PTEN-deleted HCT116 cells – cell-based, HCT116 PTEN knockout, dose response (AID 1047); format: functional;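 further: HCT116 colon tumor cells with PTEN knocked out; cells exposed to compound for 60 hours before readout; potency for loss of cell viability measured by luminescence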
Cytochrome P450 2C19 = Cytochrome P450 2C19 (Homo sapiens, UniProt P33261); test: Cytochrome panel assay with activity outcomes. Panel member name: p450-cyp2c19 Compounds with AC50 equal or less than 10 uM are considered active; format: functional; settings: read-out: AC50
Cytochrome P450 2C19, sequence (P33261 whole entry): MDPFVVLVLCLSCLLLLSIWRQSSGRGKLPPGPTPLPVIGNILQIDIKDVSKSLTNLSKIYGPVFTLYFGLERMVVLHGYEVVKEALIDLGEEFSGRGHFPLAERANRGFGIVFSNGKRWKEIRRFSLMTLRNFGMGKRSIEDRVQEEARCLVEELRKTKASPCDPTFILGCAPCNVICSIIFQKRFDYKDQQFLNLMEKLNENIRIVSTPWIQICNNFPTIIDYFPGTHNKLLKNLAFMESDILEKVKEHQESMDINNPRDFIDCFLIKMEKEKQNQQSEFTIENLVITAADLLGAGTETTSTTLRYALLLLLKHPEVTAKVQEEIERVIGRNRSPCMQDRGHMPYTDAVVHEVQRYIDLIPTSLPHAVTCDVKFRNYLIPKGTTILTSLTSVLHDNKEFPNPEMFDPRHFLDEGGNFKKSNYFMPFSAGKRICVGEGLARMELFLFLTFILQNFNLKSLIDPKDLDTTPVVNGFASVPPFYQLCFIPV

DNA dC->dU-editing enzyme APOBEC-3A, sequence (P31941 whole entry): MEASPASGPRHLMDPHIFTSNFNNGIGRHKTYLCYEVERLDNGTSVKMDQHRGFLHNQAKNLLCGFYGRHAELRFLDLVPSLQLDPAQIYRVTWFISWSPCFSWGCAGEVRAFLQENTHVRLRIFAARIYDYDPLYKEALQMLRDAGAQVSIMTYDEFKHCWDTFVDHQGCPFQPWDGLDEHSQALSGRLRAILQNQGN
DNA dC->dU-editing enzyme APOBEC-3G, sequence (Q9HC16 whole entry): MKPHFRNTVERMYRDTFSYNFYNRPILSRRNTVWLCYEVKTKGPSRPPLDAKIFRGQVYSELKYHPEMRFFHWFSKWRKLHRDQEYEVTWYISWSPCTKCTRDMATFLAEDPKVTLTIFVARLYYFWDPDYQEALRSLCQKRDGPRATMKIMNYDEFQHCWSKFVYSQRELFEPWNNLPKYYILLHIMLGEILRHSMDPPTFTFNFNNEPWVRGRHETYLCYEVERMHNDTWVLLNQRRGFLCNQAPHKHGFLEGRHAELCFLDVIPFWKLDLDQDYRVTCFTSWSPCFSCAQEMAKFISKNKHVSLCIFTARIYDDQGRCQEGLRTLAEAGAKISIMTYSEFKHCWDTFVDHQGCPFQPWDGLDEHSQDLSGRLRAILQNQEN
Ion channel NompC, sequence (Q7T1G6 whole entry): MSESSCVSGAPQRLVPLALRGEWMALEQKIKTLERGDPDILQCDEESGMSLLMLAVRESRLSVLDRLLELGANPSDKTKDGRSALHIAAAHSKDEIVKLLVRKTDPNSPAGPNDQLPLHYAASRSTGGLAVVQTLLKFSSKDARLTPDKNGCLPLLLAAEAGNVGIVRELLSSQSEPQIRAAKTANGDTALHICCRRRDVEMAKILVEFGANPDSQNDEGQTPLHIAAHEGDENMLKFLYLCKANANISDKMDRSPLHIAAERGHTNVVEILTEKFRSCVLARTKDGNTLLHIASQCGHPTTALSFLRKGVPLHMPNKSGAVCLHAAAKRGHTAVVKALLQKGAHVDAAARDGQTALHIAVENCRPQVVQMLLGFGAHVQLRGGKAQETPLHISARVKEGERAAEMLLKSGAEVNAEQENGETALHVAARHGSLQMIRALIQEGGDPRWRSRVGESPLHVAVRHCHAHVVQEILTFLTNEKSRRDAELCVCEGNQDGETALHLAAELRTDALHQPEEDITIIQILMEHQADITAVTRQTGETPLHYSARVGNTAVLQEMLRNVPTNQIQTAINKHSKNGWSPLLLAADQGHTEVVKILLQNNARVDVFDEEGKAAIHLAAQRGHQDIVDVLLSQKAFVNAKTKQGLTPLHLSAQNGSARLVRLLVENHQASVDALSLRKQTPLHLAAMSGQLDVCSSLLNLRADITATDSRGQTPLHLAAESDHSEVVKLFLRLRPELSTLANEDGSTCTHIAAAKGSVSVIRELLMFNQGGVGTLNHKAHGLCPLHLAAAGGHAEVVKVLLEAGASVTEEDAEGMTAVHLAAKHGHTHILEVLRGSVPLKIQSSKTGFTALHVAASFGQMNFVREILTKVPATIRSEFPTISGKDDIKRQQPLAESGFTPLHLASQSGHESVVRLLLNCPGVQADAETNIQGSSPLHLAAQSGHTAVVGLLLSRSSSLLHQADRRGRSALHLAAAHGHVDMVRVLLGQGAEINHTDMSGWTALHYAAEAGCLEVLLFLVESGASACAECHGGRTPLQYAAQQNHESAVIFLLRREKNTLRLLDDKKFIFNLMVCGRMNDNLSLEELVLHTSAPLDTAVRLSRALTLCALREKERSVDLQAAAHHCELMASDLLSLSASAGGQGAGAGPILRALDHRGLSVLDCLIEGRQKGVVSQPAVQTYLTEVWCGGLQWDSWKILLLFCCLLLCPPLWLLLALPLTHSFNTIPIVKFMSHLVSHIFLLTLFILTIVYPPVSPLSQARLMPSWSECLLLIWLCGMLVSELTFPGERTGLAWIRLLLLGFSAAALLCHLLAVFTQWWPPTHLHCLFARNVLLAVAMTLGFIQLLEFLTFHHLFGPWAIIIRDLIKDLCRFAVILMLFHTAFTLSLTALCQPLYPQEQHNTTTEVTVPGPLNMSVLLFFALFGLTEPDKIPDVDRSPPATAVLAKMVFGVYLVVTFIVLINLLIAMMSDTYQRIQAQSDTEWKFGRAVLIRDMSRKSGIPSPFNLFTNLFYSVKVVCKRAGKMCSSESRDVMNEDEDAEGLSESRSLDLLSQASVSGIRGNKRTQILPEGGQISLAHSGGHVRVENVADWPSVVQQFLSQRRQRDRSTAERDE
Alkaline phosphatase, placental type, sequence (P05187 whole entry): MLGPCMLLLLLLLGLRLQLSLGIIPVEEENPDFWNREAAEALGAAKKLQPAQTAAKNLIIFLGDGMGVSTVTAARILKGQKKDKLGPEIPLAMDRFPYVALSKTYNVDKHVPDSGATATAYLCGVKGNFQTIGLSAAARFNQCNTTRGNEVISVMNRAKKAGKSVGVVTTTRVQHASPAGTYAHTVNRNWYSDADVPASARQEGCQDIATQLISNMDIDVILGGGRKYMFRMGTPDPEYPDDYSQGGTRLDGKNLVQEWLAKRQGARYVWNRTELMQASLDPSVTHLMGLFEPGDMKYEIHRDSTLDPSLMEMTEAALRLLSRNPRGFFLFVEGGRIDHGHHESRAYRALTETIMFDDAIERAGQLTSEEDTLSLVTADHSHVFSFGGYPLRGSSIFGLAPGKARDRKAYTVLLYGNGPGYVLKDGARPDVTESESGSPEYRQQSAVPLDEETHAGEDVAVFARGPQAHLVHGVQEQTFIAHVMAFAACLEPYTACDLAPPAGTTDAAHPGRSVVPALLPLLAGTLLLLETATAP
Large T antigen, sequence (P03070 whole entry): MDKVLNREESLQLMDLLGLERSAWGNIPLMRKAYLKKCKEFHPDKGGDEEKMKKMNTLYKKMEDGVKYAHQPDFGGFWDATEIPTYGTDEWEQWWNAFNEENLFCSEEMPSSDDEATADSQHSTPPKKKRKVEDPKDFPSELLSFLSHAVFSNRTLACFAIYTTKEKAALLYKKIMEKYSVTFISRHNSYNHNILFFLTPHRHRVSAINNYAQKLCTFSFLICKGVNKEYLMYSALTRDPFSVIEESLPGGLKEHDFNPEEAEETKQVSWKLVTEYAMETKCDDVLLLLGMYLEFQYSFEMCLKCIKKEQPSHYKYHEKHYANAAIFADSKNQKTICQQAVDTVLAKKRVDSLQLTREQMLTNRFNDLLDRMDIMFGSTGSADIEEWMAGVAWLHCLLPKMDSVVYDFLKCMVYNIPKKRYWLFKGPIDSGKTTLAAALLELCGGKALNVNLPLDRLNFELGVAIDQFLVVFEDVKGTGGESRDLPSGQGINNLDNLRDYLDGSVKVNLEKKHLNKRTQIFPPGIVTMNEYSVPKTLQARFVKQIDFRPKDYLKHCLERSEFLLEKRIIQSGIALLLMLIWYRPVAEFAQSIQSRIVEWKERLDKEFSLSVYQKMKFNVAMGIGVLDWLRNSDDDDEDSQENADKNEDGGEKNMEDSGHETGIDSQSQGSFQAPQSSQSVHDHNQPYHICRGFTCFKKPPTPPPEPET

Question: For `CN1C(=O)N(C)C(=O)C2(Sc3ccccc3C2=O)C1=O`, which AC50 [1] is on record?
Answer: The AC50 was 11.2 µM (active).

Question: Which IC50 [2] does the source give for `CCn1c(SCC(=O)c2ccc(O)c(O)c2)nnc1-c1ccc(C)cc1` here?
Answer: The IC50 was > 100 µM (inactive).

Question: What about the IC50 [3] of the same compound?
Answer: The IC50 was 11.8 µM (active).

Question: What about the IC50 (Leucine aminopeptidase) of the same compound?
Answer: The IC50 was 17.9 µM (active).

Question: What about the IC50 (Large T antigen) of the same compound?
Answer: Its IC50 is 10.4 µM (active).

Question: Which AC50 [1] does the source give for `Cc1cccc(N2C(=O)NC(=O)/C(=C/c3ccc([N+](=O)[O-])o3)C2=O)c1` here?
Answer: The AC50 was 5.37 µM (active).

Question: What about the IC50 [4] of the same compound?
Answer: Its IC50 is 149 µM (active).

Question: Which IC50 [5] does the source give for `COc1ccccc1N(CC(=O)Nc1ccc2c(c1)OCO2)S(=O)(=O)c1ccccc1` here?
Answer: The IC50 was 2.01 µM (active).

Question: And the IC50 [6]?
Answer: The IC50 was 1.81 µM (active).

Question: Which EC50 [7] does the source give for `NC(S)=NNC(=O)C12CC3CC(CC(C3)C1)C2` here?
Answer: The EC50 was 3.53 µM (active).

Question: And the EC50 (Mucolipin-3)?
Answer: The EC50 was 2.76 µM (active).

Question: What about the EC50 (Ion channel NompC) of the same compound?
Answer: Its EC50 is 1.47 µM (active).

Question: Which EC50 (HEK293 [8]) does the source give for `N#Cc1c(N)n(C2CCCCC2)c2nc3ccccc3nc12` here?
Answer: The EC50 was > 59.6 µM (inactive).

Question: What about the EC50 (HEK293 [9]) of the same compound?
Answer: The EC50 was > 59.6 µM (inactive).

Question: Which EC50 [10] does the source give for `O=C(Nc1ccccc1)Nc1ccc(F)c([N+](=O)[O-])c1` here?
Answer: The EC50 was 18.1 µM (active).

Question: And the EC50 (Mucolipin-3)?
Answer: Its EC50 is > 29.9 µM (not active).

Question: What about the EC50 [11] of the same compound?
Answer: Its EC50 is 15.2 µM (active).

Question: And the EC50 (Ion channel NompC)?
Answer: The EC50 was > 29.9 µM (inactive).

Question: Which results are given for `Cc1ccc(C)c(NC(=O)c2nc[nH]n2)c1`?
Answer: IC50 [5]: 11.6 µM (active); AC50 (Cytochrome P450 2C19): 39.8 µM (inconclusive); IC50 [6]: 14.1 µM (active)

Question: With `COc1ccc(Br)cc1CN(C)C(=O)C1=CC=CN2CCS(=O)(=O)N=C12` as the compound, how does the IC50 [5] read?
Answer: Its IC50 is 20.2 µM (active).

Question: And the IC50 [6]?
Answer: The IC50 was 48.3 µM (active).

Question: With `CCCCCn1/c(=N/C(=O)c2ccco2)c(C(=O)OCC)cc2c(=O)n3ccccc3nc21` as the compound, how does the EC50 (HEK293 [8]) read?
Answer: The EC50 was > 59.6 µM (inactive).

Question: And the EC50 (HEK293 [9])?
Answer: Its EC50 is > 59.6 µM (inactive).

Source: ChEMBL document CHEMBL1201862, “PubChem BioAssay data set” (2004)
